From US20060264455A1 (priority 2005, published 2006)

How the values were obtained:
[1] = Toxicity Model (TOX), rotorod, mice; assay type: in vivo; details: male, CFI, mouse, in vivo, ip; mice
Source text: (§1) To investigate the neurotoxicity levels of the huperzine compounds, the Toxicity Model (TOX) using a rotorod is employed. The animals (e.g., mice) were trained to stand on an accelerating rotorod rotating at 10 rev min^−1 with a diameter of 3.2 cm. The trained animal can be given the huperzine compound at various doses and the effect of huperzine on their motor skills can be determined. The dose at which the animals fell off the rotorod is the toxic dose.
(§2) The neurotoxicity of huperzine was tested in the rotorod test. The mice were trained to stand on an accelerating rotorod rotating at 10 rev min^−1 with a diameter of 3.2 cm. The trained animals were given the huperzine at various doses and the effect of huperzine on their motor skills was determined. The dose at which the animals fell off the rotorod was the toxic dose.

motor skills on rotorod = experiment: Toxicity Model (TOX), rotorod, mice; assay type: in vivo; details: for N/F (mice showing an effect / mice tested), TOX: ip; for Behavioral motor impairment, share of mice tested: po
Source text: as §1, §2

C/C=C1\[C@H]2C=C(C)C[C@]1(N)c1ccc(=O)[nH]c1C2 [Huperzine A]
TD50 [1]: 0.83 mg/kg
Toxicity (motor skills on rotorod; 5 mg/kg I.P., within 30 minutes post administration): toxic in all animals
Behavioral impairment (motor skills on rotorod; mouse, in vivo): marked motor impairment
N/F (mice showing an effect / mice tested), TOX (motor skills on rotorod; mouse, in vivo, 0.1 mg/kg, 4 h): 0/4
N/F (mice showing an effect / mice tested), TOX (motor skills on rotorod; mouse, in vivo, 0.3 mg/kg, 4 h): 0/4
N/F (mice showing an effect / mice tested), TOX (motor skills on rotorod; mouse, in vivo, 1 mg/kg, 0.5 h): 4/4
N/F (mice showing an effect / mice tested), TOX (motor skills on rotorod; mouse, in vivo, 1 mg/kg, 4 h): 2/2
N/F (mice showing an effect / mice tested), TOX (motor skills on rotorod; mouse, in vivo, 3 mg/kg, 0.5 h): 8/8
N/F (mice showing an effect / mice tested), TOX (motor skills on rotorod; mouse, in vivo, 3 mg/kg, 4 h): 4/4
N/F (mice showing an effect / mice tested), TOX (motor skills on rotorod; mouse, in vivo, 10 mg/kg, 0.5 h): 4/4
N/F (mice showing an effect / mice tested), TOX (motor skills on rotorod; mouse, in vivo, 10 mg/kg, 4 h): 2/2
N/F (mice showing an effect / mice tested), TOX (motor skills on rotorod; mouse, in vivo, 30 mg/kg, 0.5 h): 4/4
N/F (mice showing an effect / mice tested), TOX (motor skills on rotorod; mouse, in vivo, 100 mg/kg, 0.5 h): 8/8
N/F (mice showing an effect / mice tested), TOX (motor skills on rotorod; mouse, in vivo, 300 mg/kg, 0.5 h): 4/4
Behavioral motor impairment, share of mice tested (motor skills on rotorod; mouse, in vivo, 2 mg/kg): 75%
Behavioral motor impairment, share of mice tested (motor skills on rotorod; mouse, in vivo, 4 mg/kg): 100%
